Laboratory results taken from the supplement of paper PMC11061612.

Key:
Assay in all cases: Bliss excess, mean over the matrix (fraction); higher = more synergy
SK-N-FI (Neuroblastoma) = tested on: SK-N-FI (Neuroblastoma)
Procedure, shortened: (§1)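 After 24 hours at 37°C and 5% CO2 in 1536-well plates, cells in DMEM/F12 or RPMI plus 10% FBS received two-drug dose matrices for 72 hours. Viability came from CellTiter-Glo 2.0 luminescence and was scaled as inhibition, anchored at 0 by vehicle wells and at 1 by blank wells. Combination Emax is taken as the second-highest inhibition in the matrix, and Bliss excess as the observed combination effect less EA + EB − EA·EB, with EA and EB the single-agent effects.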

[1] = tested on: DOV13 (Ovarian Carcinoma)
Procedure, shortened: as §1

[2] = tested on: LS-513 (Colorectal Carcinoma)
Procedure, shortened: as §1

[3] = tested on: KARPAS-1106P (B-Cell Non-Hodgkin's Lymphoma)
Procedure, shortened: as §1

ES7 (Ewing's Sarcoma) = tested on: ES7 (Ewing's Sarcoma)
Procedure, shortened: as §1

DSH1 (Bladder Carcinoma) = tested on: DSH1 (Bladder Carcinoma)
Procedure, shortened: as §1

SN12C (Kidney Carcinoma) = tested on: SN12C (Kidney Carcinoma)
Procedure, shortened: as §1

[4] = tested on: SW1783 (Low Grade Glioma)
Procedure, shortened: as §1

[5] = tested on: MDA-MB-157 (Breast Carcinoma)
Procedure, shortened: as §1

[6] = tested on: MFH-ino (Other Solid Carcinomas)
Procedure, shortened: as §1

[7] = tested on: OCI-AML2 (Acute Myeloid Leukemia)
Procedure, shortened: as §1

[8] = tested on: TE-5 (Esophageal Squamous Cell Carcinoma)
Procedure, shortened: as §1

[9] = tested on: SW1088 (Low Grade Glioma)
Procedure, shortened: as §1

[10] = tested on: G-292-Clone-A141B1 (Osteosarcoma)
Procedure, shortened: as §1

| SMILES | Bliss excess (SK-N-FI (Neuroblastoma)) | Bliss excess [1] | Bliss excess [2] | Bliss excess [3] | Bliss excess (ES7 (Ewing's Sarcoma)) | Bliss excess (DSH1 (Bladder Carcinoma)) | Bliss excess (SN12C (Kidney Carcinoma)) | Bliss excess [4] | Bliss excess [5] | Bliss excess [6] | Bliss excess [7] | Bliss excess [8] | Bliss excess [9] | Bliss excess [10] |
| --- | --- | --- | --- | --- | --- | --- | --- | --- | --- | --- | --- | --- | --- | --- |
| C[C@@H](Oc1cc(-c2cnn(C3CCNCC3)c2)cnc1N)c1c(Cl)ccc(F)c1Cl [Crizotinib] + CC1=C(C(=CC=C1)Cl)NC(=O)C2=CN=C(S2)NC3=CC(=NC(=N3)C)N4CCN(CC4)CCO [Dasatinib] (first compound max 10 µM, 7x7, partner max 2 µM) | -0.0425 | 0.067 | -0.0485 | -0.026 | 0.0273 | -0.0536 | -0.0384 | 0.103 | -0.0052 | 0.0577 | -0.0271 | 0.0287 | 0.016 | 0.028 |
| C[C@@H](Nc1cc(F)cc(F)c1)c1cc(C(=O)N(C)C)cc2c(=O)cc(N3CCOCC3)oc12 [AZD8186] + C1CN(CCC1(C(=O)N[C@@H](CCO)C2=CC=C(C=C2)Cl)N)C3=NC=NC4=C3C=CN4 [AZD5363] (first compound max 10 µM, 7x7, partner max 10 µM) | -0.0299 | 0.026 | -0.0681 | -0.0234 | 0.0043 | -0.0297 | -0.0471 | -0.0125 | 0.0227 | -0.0258 | -0.0007 | 0.0152 | -0.0474 | -0.0518 |
| N#Cc1cnc(Nc2cc(NC[C@H]3CNCCO3)c(C(F)(F)F)cn2)cn1 [SRA737] + O=c1[nH]cc(F)c(=O)[nH]1 [5-Fluorouracil] (first compound max 10 µM, 7x7, partner max 20 µM) | -0.0627 | 0.0258 | -0.0287 | 0.0407 | 0.0157 | 0.0051 | -0.0474 | 0.0143 | 0.0781 | 0.0373 | 0.0247 | 0.0052 | 0.0081 | -0.0458 |
| Cc1nc(-c2cn3c(n2)-c2ccc(-c4cnn(C(C)(C)C(N)=O)c4)cc2OCC3)n(C(C)C)n1 [Taselisib] + O=C(Nc1ccc2[nH]nc(-c3ccncc3)c2c1)[C@@H]1CCN(CC(=O)N2CCN(c3ccc(-c4ncccn4)cc3)CC2)C1 [SCH772984] (first compound max 10 µM, 7x7, partner max 5 µM) | 0.0465 | 0.0568 | -0.0377 | 0.0391 | 0.036 | 0.0051 | 0.0003 | -0.0071 | 0.0631 | -0.0018 | 0.132 | 0.113 | -0.0867 | -0.0258 |
| C[C@@H]1COCCN1c1cc(C2([S@](C)(=N)=O)CC2)nc(-c2ccnc3[nH]ccc23)n1 [AZD6738] + Nc1ccn([C@@H]2O[C@H](CO)[C@@H](O)C2(F)F)c(=O)n1 [Gemcitabine] (first compound max 10 µM, 7x7, partner max 0.3 µM) | 0.0769 | 0.0205 | -0.0336 | 0.0614 | 0.0367 | 0.0108 | 0.0577 | -0.0109 | 0.0295 | -0.0585 | 0.0351 | -0.0102 | -0.0399 | 0.0421 |
| Cc1c2c(nn1C)CSCc1cc(n(C)n1)CSc1cc(c3ccccc3c1)OCCCc1c(C(=O)O)n(C)c3c-2c(Cl)ccc13 [AZD5991] + CS(=O)(=O)CCNCc1ccc(-c2ccc3ncnc(Nc4ccc(OCc5cccc(F)c5)c(Cl)c4)c3c2)o1 [Lapatinib] (first compound max 1 µM, 7x7, partner max 10 µM) | -0.0808 | 0.0072 | 0.0305 | 0.0482 | 0.0148 | 0.0013 | 0.0035 | -0.0106 | 0.0108 | -0.0513 | 0.0415 | 0.0198 | -0.0137 | -0.0185 |
| Cc1c2c(nn1C)CSCc1cc(n(C)n1)CSc1cc(c3ccccc3c1)OCCCc1c(C(=O)O)n(C)c3c-2c(Cl)ccc13 [AZD5991] + Nc1ccn([C@@H]2O[C@H](CO)[C@@H](O)C2(F)F)c(=O)n1 [Gemcitabine] (first compound max 1 µM, 7x7, partner max 0.3 µM) | 0.0074 | -0.0605 | -0.102 | -0.0216 | 0.0062 | 0.053 | -0.0232 | -0.0199 | -0.0145 | -0.0495 | 0.0516 | 0.0112 | -0.0666 | -0.0587 |
| C=CCn1c(=O)c2cnc(Nc3ccc(N4CCN(C)CC4)cc3)nc2n1-c1cccc(C(C)(C)O)n1 [AZD1775] + CCc1c2c(nc3ccc(O)cc13)-c1cc3c(c(=O)n1C2)COC(=O)[C@]3(O)CC [SN-38] (first compound max 1 µM, partner max 0.3 µM) | -0.0038 | -0.0262 | -0.0867 | -0.0946 | -0.0228 | -0.0654 | 0.0364 | -0.0817 | 0.0495 | -0.0756 | -0.0278 | -0.0583 | -0.0641 | 0.023 |
| CN(CCO)CC[C@H](CSc1ccccc1)Nc1ccc(S(=O)(=O)NC(=O)c2ccc(N3CCC([C@@H](O)c4ccccc4-c4ccc(Cl)cc4)CC3)cc2)cc1S(=O)(=O)C(F)(F)F [AZD4320] + CC(=O)O[C@H]1C(=O)[C@@]2(C)[C@H]([C@H](OC(=O)c3ccccc3)[C@]3(O)C[C@H](OC(=O)[C@H](O)[C@@H](NC(=O)c4ccccc4)c4ccccc4)C(C)=C1C3(C)C)[C@]1(OC(C)=O)CO[C@@H]1C[C@@H]2O [Paclitaxel] (first compound max 1 µM, 7x7, partner max 3 µM) | -0.025 | 0.0136 | -0.0136 | 0.0929 | 0.0227 | 0.163 | 0.153 | 0.0754 | 0.0168 | 0.0474 | -0.0016 | 0.176 | 0.0303 | 0.157 |
| CS(=O)(=O)CCNCc1ccc(-c2ccc3ncnc(Nc4ccc(OCc5cccc(F)c5)c(Cl)c4)c3c2)o1 [Lapatinib] + Cn1cnc2c(F)c(Nc3ccc(Br)cc3Cl)c(C(=O)NOCCO)cc21 [Selumetinib] (first compound max 10 µM, 7x7, partner max 10 µM) | 0.0179 | -0.0166 | -0.054 | 0.0436 | -0.0355 | -0.067 | -0.0375 | -0.0252 | -0.0598 | -0.0468 | -0.0296 | -0.0241 | -0.0524 | -0.0566 |
| O=C(c1cc(Cc2n[nH]c(=O)c3ccccc23)ccc1F)N1CCN(C(=O)C2CC2)CC1 [Olaparib] + CC1(C)CCC(CN2CCN(c3ccc(C(=O)NS(=O)(=O)c4ccc(NCC5CCOCC5)c([N+](=O)[O-])c4)c(Oc4cnc5[nH]ccc5c4)c3)CC2)=C(c2ccc(Cl)cc2)C1 [Venetoclax] (first compound max 10 µM, 7x7, partner max 1 µM) | -0.0527 | -0.0322 | -0.0498 | -0.0169 | 0.0282 | -0.0401 | -0.0534 | -0.0349 | -0.0406 | -0.0622 | 0.0964 | -0.0458 | -0.0611 | -0.0566 |
| CN(CCO)CC[C@H](CSc1ccccc1)Nc1ccc(S(=O)(=O)NC(=O)c2ccc(N3CCC([C@@H](O)c4ccccc4-c4ccc(Cl)cc4)CC3)cc2)cc1S(=O)(=O)C(F)(F)F [AZD4320] + CS(=O)(=O)CCNCc1ccc(-c2ccc3ncnc(Nc4ccc(OCc5cccc(F)c5)c(Cl)c4)c3c2)o1 [Lapatinib] (first compound max 1 µM, 7x7, partner max 10 µM) | 0.057 | 0.0488 | 0.0667 | -0.0212 | 0.0769 | 0.0511 | -0.0385 | 0.0765 | 0.019 | -0.0732 | 0.0843 | 0.0542 | -0.0544 | 0.0467 |
| C[C@@H](Oc1cc(-c2cnn(C3CCNCC3)c2)cnc1N)c1c(Cl)ccc(F)c1Cl [Crizotinib] + Cn1cnc2c(F)c(Nc3ccc(Br)cc3Cl)c(C(=O)NOCCO)cc21 [Selumetinib] (first compound max 10 µM, 7x7, partner max 10 µM) | 0.0321 | -0.0732 | -0.0167 | 0.0052 | -0.0134 | -0.117 | -0.0062 | -0.0486 | -0.0125 | -0.026 | -0.0036 | -0.0366 | -0.0256 | -0.0223 |
| C=CCn1c(=O)c2cnc(Nc3ccc(N4CCN(C)CC4)cc3)nc2n1-c1cccc(C(C)(C)O)n1 [AZD1775] + Nc1ccn([C@@H]2O[C@H](CO)[C@@H](O)C2(F)F)c(=O)n1 [Gemcitabine] (first compound max 1 µM, partner max 0.3 µM) | -0.0167 | 0.016 | -0.04 | 0.0085 | 0.0319 | -0.0833 | 0.0719 | 0.0121 | 0.106 | -0.0087 | 0.0415 | -0.0678 | -0.0468 | -0.0405 |
| C[C@@H](Nc1cc(F)cc(F)c1)c1cc(C(=O)N(C)C)cc2c(=O)cc(N3CCOCC3)oc12 [AZD8186] + CC(=O)c1c(C)c2cnc(Nc3ccc(N4CCNCC4)cn3)nc2n(C2CCCC2)c1=O [Palbociclib] (first compound max 10 µM, 7x7, partner max 10 µM) | 0.0089 | -0.224 | 0.0084 | -0.04 | 0.115 | 0.104 | 0.0245 | 0.0594 | 0.0093 | 0.0173 | 0.132 | 0.0301 | 0.0658 | -0.0001 |
| N#Cc1cnc(Nc2cc(NC[C@H]3CNCCO3)c(C(F)(F)F)cn2)cn1 [SRA737] + C=CCn1c(=O)c2cnc(Nc3ccc(N4CCN(C)CC4)cc3)nc2n1-c1cccc(C(C)(C)O)n1 [AZD1775] (first compound max 10 µM, partner max 1 µM) | 0.0703 | 0.132 | 0.0476 | 0.0143 | 0.102 | -0.0441 | -0.0184 | 0.0153 | 0.119 | -0.013 | 0.071 | 0.0481 | 0.0681 | -0.009 |
| N#Cc1cnc(Nc2cc(NC[C@H]3CNCCO3)c(C(F)(F)F)cn2)cn1 [SRA737] + Nc1ccn([C@@H]2O[C@H](CO)[C@@H](O)C2(F)F)c(=O)n1 [Gemcitabine] (first compound max 10 µM, 7x7, partner max 0.3 µM) | 0.0476 | 0.0821 | -0.0189 | 0.0126 | 0.0172 | 0.0195 | 0.0884 | 0.0091 | 0.0499 | -0.0148 | – | -0.0151 | -0.0658 | 0.0405 |
